pIC50: −log10 of the molar value. Structures can show the parent of a compound that is named as a salt.
Tests used:
[1] = target: ATM (Homo sapiens (Human), UniProt Q13315); test: ATM in Cell Western Assay (pKAP1 in etoposide-treated MCF-7 cells); format: cell-based
How it was run: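 Cells received compounds in a 10-dose, 3-fold series from a 1 μM final top concentration, then 100 μM etoposide, for 1 hr at 37° C. They were then fixed with paraformaldehyde and permeabilized with 0.1% Triton X-100. After immunostaining, plates were scanned on an infrared imager.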

[2] = target: DNA-PK (Homo sapiens (Human), UniProt P78527); test: DNA-PK Enzyme-Linked Immunosorbent Assay (phosphorylation of GST-p53 (1-101) peptide); format: biochemical; conditions: ELISA
How it was run: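 ELISA with plate-bound GST-p53 (1-101) phosphorylated by DNA-PK (0.1 μg/mL final) with 20 μM ATP for 1 h at 25 °C. Compounds tested over 10 3-fold doses from 100 nM top final. Phospho-p53 Ser15 detected by antibody, HRP and TMB, absorbance at 450 nm.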

[3] = MCF-7 cells, etoposide 100 μM, 1 hr, pKAP1 readout
[4] = pKAP1 in etoposide-treated MCF-7 cells

Sequence of ATM (Q13315 whole entry): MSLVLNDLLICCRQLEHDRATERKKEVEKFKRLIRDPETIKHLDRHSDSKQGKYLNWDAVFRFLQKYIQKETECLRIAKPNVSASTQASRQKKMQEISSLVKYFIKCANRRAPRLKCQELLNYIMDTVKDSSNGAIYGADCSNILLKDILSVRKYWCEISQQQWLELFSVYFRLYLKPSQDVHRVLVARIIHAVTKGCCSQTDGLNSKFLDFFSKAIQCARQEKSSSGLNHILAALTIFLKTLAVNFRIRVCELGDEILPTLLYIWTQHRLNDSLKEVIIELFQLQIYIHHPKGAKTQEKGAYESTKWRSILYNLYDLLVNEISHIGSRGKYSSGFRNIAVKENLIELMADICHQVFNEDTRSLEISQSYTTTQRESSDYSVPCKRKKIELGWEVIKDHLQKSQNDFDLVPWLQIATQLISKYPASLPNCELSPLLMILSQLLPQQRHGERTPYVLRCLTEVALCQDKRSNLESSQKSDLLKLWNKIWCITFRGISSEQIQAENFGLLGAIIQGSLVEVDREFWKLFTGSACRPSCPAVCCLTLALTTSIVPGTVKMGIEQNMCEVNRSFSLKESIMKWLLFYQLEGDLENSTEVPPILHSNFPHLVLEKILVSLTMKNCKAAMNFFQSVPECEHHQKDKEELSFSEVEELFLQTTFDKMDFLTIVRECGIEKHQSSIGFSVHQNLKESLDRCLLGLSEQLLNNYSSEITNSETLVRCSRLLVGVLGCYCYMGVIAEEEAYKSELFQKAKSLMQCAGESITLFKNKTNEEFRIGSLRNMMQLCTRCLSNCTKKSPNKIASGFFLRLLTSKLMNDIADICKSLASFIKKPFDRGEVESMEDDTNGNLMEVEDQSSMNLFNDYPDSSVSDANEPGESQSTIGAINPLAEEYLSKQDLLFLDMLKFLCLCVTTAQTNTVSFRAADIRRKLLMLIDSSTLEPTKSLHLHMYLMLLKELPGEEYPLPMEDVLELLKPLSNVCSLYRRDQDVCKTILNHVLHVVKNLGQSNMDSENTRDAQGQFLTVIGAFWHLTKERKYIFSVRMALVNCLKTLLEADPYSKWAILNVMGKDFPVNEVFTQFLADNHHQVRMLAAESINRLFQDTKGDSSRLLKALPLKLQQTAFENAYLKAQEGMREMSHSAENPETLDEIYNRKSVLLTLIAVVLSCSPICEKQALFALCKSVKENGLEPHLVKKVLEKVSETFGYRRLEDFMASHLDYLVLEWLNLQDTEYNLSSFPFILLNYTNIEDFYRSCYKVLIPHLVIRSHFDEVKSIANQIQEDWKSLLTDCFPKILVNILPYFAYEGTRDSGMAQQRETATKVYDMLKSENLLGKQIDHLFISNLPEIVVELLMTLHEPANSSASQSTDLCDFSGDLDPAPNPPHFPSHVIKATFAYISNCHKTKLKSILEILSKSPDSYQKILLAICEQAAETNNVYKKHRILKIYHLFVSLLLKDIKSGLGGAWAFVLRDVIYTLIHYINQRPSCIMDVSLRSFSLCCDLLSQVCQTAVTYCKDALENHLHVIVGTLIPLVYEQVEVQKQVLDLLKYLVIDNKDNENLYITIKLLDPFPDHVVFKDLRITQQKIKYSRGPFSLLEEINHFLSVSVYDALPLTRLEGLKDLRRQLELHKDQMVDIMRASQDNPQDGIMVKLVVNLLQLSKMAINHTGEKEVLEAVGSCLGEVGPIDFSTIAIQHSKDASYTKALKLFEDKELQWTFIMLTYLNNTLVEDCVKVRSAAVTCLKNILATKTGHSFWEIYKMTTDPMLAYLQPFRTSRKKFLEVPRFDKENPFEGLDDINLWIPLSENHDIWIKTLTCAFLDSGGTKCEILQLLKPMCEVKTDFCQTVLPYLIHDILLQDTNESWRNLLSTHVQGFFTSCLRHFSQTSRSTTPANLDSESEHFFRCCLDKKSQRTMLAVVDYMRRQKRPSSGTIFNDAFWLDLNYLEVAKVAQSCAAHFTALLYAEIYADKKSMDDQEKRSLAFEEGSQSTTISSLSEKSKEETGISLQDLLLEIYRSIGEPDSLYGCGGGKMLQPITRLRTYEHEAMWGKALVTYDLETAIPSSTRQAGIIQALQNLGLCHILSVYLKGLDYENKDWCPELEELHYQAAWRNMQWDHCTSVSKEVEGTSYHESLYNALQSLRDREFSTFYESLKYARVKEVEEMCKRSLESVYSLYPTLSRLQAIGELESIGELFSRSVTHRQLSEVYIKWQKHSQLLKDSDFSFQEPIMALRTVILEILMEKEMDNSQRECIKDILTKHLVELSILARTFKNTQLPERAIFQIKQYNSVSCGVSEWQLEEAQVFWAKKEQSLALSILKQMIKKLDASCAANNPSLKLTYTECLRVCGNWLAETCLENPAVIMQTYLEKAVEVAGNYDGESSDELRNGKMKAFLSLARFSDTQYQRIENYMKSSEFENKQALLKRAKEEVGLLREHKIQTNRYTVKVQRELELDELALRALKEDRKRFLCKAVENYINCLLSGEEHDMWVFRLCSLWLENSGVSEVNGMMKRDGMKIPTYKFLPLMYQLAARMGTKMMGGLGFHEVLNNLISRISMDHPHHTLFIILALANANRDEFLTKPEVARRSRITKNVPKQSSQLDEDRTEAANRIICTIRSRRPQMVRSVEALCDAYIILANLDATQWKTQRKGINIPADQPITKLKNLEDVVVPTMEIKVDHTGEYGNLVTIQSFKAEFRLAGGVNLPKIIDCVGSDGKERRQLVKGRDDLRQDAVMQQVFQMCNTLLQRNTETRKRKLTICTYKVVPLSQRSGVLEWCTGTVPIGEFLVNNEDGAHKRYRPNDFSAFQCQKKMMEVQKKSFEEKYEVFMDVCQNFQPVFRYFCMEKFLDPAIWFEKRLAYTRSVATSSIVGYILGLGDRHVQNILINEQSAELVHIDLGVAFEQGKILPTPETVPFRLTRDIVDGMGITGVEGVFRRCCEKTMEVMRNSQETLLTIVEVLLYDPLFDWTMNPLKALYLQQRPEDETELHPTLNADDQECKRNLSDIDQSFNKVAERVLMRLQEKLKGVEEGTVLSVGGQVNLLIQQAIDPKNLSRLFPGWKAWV

Structure (SMILES) | pIC50 [1, 3] | pIC50 ([2]; ATP 20 μM) | pIC50 [1, 4] | pIC50 ([2]; 20 μM ATP)
CN(C)CCCOc1ncc(-c2ccc3ncc4c(c3c2)C2(CC2)C(=O)N4C)cc1NS(=O)(=O)c1ccc(C(C)(C)C)cc1 [Example 127] | 7.00 to 9.00 | 7.00 to 9.00 | – | –
CN(C)CCCOc1ncc(-c2ccc3ncc4c(c3c2)C2(CCC2)C(=O)N4C)cc1NS(=O)(=O)N1CCN(C)CC1 [Example 162, N-(2-(3-(Dimethylamino)propoxy)-5-(3′-methyl-2′-oxo-2′,3′-dihydrospiro[cyclobutane-1,1′-pyrrolo[2,3-c]quinolin]-8′-yl)pyridin-3-yl)-4-methylpiperazine-1-sulfonamide hydrochloride] | 7.00 to 9.00 | 9.00 to 9.30 | – | –
CN1C(=O)C2(CC2)c2c1cnc1ccc(-c3cnc(OCCC4CCCN4C)c(NS(=O)(=O)C4CC4)c3)cc21 (stereo not drawn) [Example 79, N-(5-(3-Methyl-2′-oxo-2′,3′-dihydrospiro[cyclopropane-1,1′-pyrrolo[2,3-c]quinolin]-8′-yl)-2-(2-(1-methylpyrrolidin-2-yl)ethoxy)pyridin-3-yl)cyclopropanesulfonamide] | 7.00 to 9.00 | 7.00 to 9.00 | – | –
CN(C)CCCOc1ncc(-c2ccc3ncc4c(c3c2)C2(CCC2)C(=O)N4C)cc1NS(=O)(=O)c1cnn(C)c1 [Example 166, N-(2-(3-(Dimethylamino)propoxy)-5-(3′-methyl-2′-oxo-2′,3′-dihydrospiro [cyclobutane-1,1′-pyrrolo [2,3-c]quinolin]-8′-yl)pyridin-3-yl)-1-methyl-1H-pyrazole-4-sulfonamide hydrochloride] | 7.00 to 9.00 | 7.00 to 9.00 | – | –
Cc1ccc(S(=O)(=O)Nc2cc(-c3ccc4ncc5c(c4c3)C3(CCC3)C(=O)N5C)cnc2OCCCN2CCCCC2)cn1 [Example 142, 6-Methyl-N-(5-(3 methyl-2′-oxo-2′,3′-dihydrospiro[cyclobulane-1,1′-pyrrolo[2,3-c]quinolin]-8′-yl)-2-(3-(piperidin-1-yl)propoxy)pyridin-3-yl)pyridine-3-sulfonamide hydrochloride] | 7.00 to 9.00 | > 9.30 | – | –
CNC1CN(c2ncc(-c3cc4c5c(cnc4cc3F)N(C)C(=O)C53CCC3)cc2NS(C)(=O)=O)C1 [Example 330, N-(5-(7′-Fluor-3′-methyl-2′-oxo-2′,3′-dihydrospiro [cyclobutane-1,1-pyrrolo[2,3-c]quinolin]-8′-yl)-2-(3-(methylamino)azetidin-1-yl)pyridin-3-yl) methanesulfonamide formate] | 7.00 to 9.00 | 9.00 to 9.30 | – | –
CN1C(=O)C2(CC2)c2c1cnc1ccc(-c3cnc(Cl)c(NS(=O)(=O)c4ccccc4)c3)cc21 [Example 15, N-(2-Chloro-5-(3′-methyl-2′-oxo-2′,3′-dihydrospiro[cyclopropane-1,1′-pyrrolo[2,3-c]quinolin]-8′-yl)pyridin-3-yl)benzenesulfonamide] | 7.00 to 9.00 | > 9.30 | – | –
CCS(=O)(=O)Nc1cc(-c2ccc3ncc4c(c3c2)C2(CCC2)C(=O)N4C)cnc1OCCCN(C)C [Example 238, N-(2-(3-(Dimethylamino)propoxy)-5-(3′-methyl-2′-oxo-2′,3′-dihydrospiro [cyclobutane-1,1′-pyrrolo[2,3-c]quinolin]-8′-yl)pyridin-3-yl) ethanesulfonamide] | 7.00 to 9.00 | 7.00 to 9.00 | – | –
CN1C(=O)C2(CCC2)c2c1cnc1ccc(-c3cnc(OCCCN4CCCC4)c(NS(=O)(=O)N(C)C)c3)cc21 [Example 242, 8′-(5-[(Dimethylsulfamoyl)amino]-6-[3-(pyrrolidin-1-yl)propoxy]pyridin-3-yl)-3′-methyl-2′,3′-dihydrospiro [cyclobutane-1,1′-pyrrolo[2,3-c]quinoline]-2′-one] | 9.00 to 9.30 | 7.00 to 9.00 | – | –
CC(C)NCCOc1ncc(-c2cc3c4c(cnc3cc2F)N(C)C(=O)C42CCC2)cc1NS(=O)(=O)C1CC1 [Example 365, N-(5-(7′-Fluoro-3′-methyl-2′-oxo-2′,3′-dihydrospiro[cyclobutane-1,1′-pyrrolo[2,3-c]quinolin]-8′-yl)-2-(2-(isopropylamino)ethoxy)pyridin-3-yl)cyclopropanesulfonamide hydrochloride] | – | – | 7.00 to 9.00 | 7.00 to 9.00
COc1ccc([C@H]2C[C@@]3(C2)C(=O)N(C)c2cnc4cc(F)c(-c5cnc(OCCNC(C)C)c(NS(C)(=O)=O)c5)cc4c23)cc1 [Example 421, hydrochloride] | – | – | < 7.00 | 7.00 to 9.00
CC(C)NCCOc1ncc(-c2cc3c(cc2F)ncc2c3[C@]3(C[C@@H](c4ccc(Cl)cc4)C3)C(=O)N2C)cc1NS(C)(=O)=O [Example 417, trans-N-(5-(3-(4-Chlorophenyl)-7′ fluoro-3′-methyl-2′-oxo-2′,3′-dihydrospiro[cyclobutane-1,1′-pyrrolo[2,3-c]quinolin]-8′-yl)-2-(2-(isopropylamino)ethoxy)pyridin-3-yl)methanesulfonamide] | – | – | < 7.00 | 7.00 to 9.00

Further lines, results first:

pIC50 [1, 3] | pIC50 ([2]; ATP 20 μM) | pIC50 [1, 4] | pIC50 ([2]; 20 μM ATP) | Structure (SMILES)
7.00 to 9.00 | 7.00 to 9.00 | – | – | CCN(CC)S(=O)(=O)Nc1cc(-c2ccc3ncc4c(c3c2)C2(CCC2)C(=O)N4C)cnc1OCCCN(C)C [Example 183, 8′-{5-[(Diethylsulfanioyl)amino]-6-[3-(dimethylamino)propoxy]pyridine-3-yl}-3′-methyl-2′,3′-dihydrospiro [cyclobutane-1,1′-pyrrolo[2,3-c]quinoline]-2′-one]
> 9.30 | > 9.30 | – | – | CN1C(=O)C2(CC2)c2c1cnc1ccc(-c3cnc(N4CCC(N(C)C)CC4)c(NS(=O)(=O)C4CC4)c3)cc21 [Example 113, N-(2-(4-(Dimethylamino)piperidin-1-yl)-5-(3′-methyl-2′-oxo-2′,3′-dihydrospiro[cyclopropane-1,1′-pyrrolo[2,3-c]quinolin]-8′-yl)pyridin-3-yl)cyclopropanesulfonamide]
7.00 to 9.00 | 7.00 to 9.00 | – | – | CN1C(=O)C2(CC2)c2c1cnc1ccc(-c3ccc4ncccc4c3)cc21 [Example 22, 3′-Methyl-8′-(quinolin-6-yl)spiro[cyclopropane-1,1′-pyrrolo[2,3-c]quinolin]-2′(3′-H)-one]
7.00 to 9.00 | 7.00 to 9.00 | – | – | CC1CCC12C(=O)N(C)c1cnc3ccc(-c4cnc(N5CC(N(C)C)C5)c(NS(C)(=O)=O)c4)cc3c12 (stereo not drawn) [Example 325, N-(5-(2,3′-Dimethyl-2′-oxo-2′,3′-dihydrospiro[cyclobutane-1,1′-pyrrolo[2,3-c]quinolin]-8′-yl)-2-(3-(dimethylamino)azetidin-1-yl)pyridin-3-yl)methanesulfonamideformate]
7.00 to 9.00 | > 9.30 | – | – | COc1ccc(S(=O)(=O)Nc2cc(-c3ccc4ncc5c(c4c3)C3(CC3)C(=O)N5C)cnc2OCCCN(C)C)cc1 [Example 93, N-(2-(3-(Dimethylamino)propoxy)-5-(3′-methyl-2′-oxo-2′,3′-dihydrospiro [cyclopropane-1,1′-pyrrolo[2,3-c]quinolin]-8′-yl)pyridin-3-yl)-4-methoxybenzenesulfonamide]
7.00 to 9.00 | 9.00 to 9.30 | – | – | CN(C)CCCOc1ncc(-c2ccc3ncc4c(c3c2)C2(CCC2)C(=O)N4C)cc1NS(=O)(=O)c1ccc(C#N)nc1 [Example 147, 6-Cyano-N-(2-(3-(dimethylamino)propoxy)-5-(3′-methyl-2′-oxo-2′,3′-dihydrospiro[cyclobulane-1,1′-pyrrolo[2,3-c]quinolin]-8′-yl)pyridin-3-ylpyridine-3-sulfonamide hydrochloride]
